Data set [1] in a line: Stimulation of soluble guanylate cyclase (sGC) using baculovirus expressed and partially purified bovine sGC at 1 uM concentration relative to benzydamine.
The species named for data set [2] is Homo sapiens. The data set is described as follows: Percent inhibition of collagen stimulated platelet aggregation at a concentration of 10 uM. The class given is functional.
The nature of data set [3]: Tmax at the dose of 2 mg/Kg administered perorally in rats. Conditions: rat, in vivo, po. The format is ADME, organism-based.
A short description of data set [4]: Cmax at the dose of 2 mg/Kg administered perorally in rats. The settings on record: rat, in vivo, po. The class given is ADME, organism-based. More on the design: dose 2 mg/Kg, route oral.
Data set [5] deals with Rattus norvegicus. The data set is described as follows: Area under curve at the dose of 2 mg/Kg administered perorally in rats. The class given is ADME, organism-based. Conditions: in vivo, po.
The species named for data set [6] is Homo sapiens. The data set is described as follows: Concentration required to inhibit collagen induced platelet aggregation by 50%. The format is functional, organism-based.
The nature of data set [7]: Bioavailability in rat (dose 2 mg/kg p.o.). The class given is ADME, organism-based. Conditions: in vivo, po.
Data set [8] concerns the target Soluble guanylate cyclase (Homo sapiens, UniProt O75343+P33402+Q02108+Q02153). In words: The cGMP produced by compound was expressed as a ratio between the percentage of the DEA/NO response for the compound. The format is protein-complex assay.
A short description of data set [9]: Percent bioavailability at the dose of 5 mg/Kg administered perorally in rats. The class given is ADME, organism-based. The settings on record: rat, in vivo, po.
Data set [10] can be described thus: Tmax at the dose of 5 mg/Kg administered perorally in rats. The format is ADME, organism-based. The settings on record: rat, in vivo, po.
The test system of data set [11] is Rattus norvegicus. The data set is described as follows: Area under curve at the dose of 5 mg/Kg administered perorally in rats. The format is ADME, organism-based. The settings on record: in vivo, po.
Data set [12] is described as follows: Cmax at the dose of 5 mg/Kg administered perorally in rats. The class given is ADME, organism-based. More on the design: dose 5 mg/Kg, route oral. The settings on record: rat, in vivo, po.

Chain of Soluble guanylate cyclase (Q02153 whole entry): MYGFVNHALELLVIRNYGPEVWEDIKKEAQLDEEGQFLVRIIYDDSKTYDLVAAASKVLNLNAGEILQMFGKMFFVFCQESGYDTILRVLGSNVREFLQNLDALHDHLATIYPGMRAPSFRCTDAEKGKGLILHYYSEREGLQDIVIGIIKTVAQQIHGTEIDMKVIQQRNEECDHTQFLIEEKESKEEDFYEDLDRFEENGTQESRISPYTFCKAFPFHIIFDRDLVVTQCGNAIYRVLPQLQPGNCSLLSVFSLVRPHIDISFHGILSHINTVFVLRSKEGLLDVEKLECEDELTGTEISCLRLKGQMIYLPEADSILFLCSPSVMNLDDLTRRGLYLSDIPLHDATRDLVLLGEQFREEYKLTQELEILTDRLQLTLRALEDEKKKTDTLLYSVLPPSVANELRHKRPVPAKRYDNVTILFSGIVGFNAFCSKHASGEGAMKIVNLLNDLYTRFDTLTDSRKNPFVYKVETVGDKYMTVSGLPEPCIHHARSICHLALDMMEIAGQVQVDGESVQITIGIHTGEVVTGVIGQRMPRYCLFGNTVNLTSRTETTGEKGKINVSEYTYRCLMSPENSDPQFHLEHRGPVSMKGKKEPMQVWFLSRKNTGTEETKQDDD
Chain of Soluble guanylate cyclase (O75343 whole entry): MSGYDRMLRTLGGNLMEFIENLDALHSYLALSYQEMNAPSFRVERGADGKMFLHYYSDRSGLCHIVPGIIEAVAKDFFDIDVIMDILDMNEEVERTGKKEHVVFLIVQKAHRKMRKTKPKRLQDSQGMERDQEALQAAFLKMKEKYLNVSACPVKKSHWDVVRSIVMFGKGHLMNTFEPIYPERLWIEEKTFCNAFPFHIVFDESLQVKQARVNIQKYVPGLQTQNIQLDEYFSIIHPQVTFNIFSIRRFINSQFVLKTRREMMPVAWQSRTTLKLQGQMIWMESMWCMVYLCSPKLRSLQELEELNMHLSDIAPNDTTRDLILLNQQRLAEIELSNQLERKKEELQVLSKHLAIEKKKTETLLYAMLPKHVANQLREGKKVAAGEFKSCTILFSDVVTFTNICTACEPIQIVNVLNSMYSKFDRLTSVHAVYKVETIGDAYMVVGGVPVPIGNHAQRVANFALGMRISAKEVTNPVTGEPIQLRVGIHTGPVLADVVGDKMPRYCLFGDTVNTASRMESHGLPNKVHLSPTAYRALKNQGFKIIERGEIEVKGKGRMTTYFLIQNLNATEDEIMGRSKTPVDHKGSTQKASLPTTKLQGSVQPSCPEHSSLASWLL
Chain of Soluble guanylate cyclase (P33402 whole entry): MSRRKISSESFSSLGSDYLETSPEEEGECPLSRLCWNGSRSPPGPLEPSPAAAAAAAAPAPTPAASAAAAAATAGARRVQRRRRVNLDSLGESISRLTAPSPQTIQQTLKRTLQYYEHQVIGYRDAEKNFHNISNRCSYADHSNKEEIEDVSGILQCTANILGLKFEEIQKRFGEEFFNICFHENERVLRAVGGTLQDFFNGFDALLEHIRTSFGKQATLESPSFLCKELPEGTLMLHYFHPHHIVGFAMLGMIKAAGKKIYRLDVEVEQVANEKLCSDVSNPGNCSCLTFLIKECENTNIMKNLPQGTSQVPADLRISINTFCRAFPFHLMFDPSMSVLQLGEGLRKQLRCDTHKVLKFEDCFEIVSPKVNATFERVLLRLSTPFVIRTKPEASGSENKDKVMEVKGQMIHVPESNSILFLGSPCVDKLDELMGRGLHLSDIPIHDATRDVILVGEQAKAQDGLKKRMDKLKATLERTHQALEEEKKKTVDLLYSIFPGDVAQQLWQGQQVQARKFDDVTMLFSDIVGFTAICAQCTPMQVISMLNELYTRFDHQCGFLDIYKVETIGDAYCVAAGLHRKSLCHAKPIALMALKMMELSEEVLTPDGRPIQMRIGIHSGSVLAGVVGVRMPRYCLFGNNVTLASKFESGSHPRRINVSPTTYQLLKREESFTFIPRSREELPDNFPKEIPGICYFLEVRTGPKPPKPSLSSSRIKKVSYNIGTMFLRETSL
Chain of Soluble guanylate cyclase (Q02108 whole entry): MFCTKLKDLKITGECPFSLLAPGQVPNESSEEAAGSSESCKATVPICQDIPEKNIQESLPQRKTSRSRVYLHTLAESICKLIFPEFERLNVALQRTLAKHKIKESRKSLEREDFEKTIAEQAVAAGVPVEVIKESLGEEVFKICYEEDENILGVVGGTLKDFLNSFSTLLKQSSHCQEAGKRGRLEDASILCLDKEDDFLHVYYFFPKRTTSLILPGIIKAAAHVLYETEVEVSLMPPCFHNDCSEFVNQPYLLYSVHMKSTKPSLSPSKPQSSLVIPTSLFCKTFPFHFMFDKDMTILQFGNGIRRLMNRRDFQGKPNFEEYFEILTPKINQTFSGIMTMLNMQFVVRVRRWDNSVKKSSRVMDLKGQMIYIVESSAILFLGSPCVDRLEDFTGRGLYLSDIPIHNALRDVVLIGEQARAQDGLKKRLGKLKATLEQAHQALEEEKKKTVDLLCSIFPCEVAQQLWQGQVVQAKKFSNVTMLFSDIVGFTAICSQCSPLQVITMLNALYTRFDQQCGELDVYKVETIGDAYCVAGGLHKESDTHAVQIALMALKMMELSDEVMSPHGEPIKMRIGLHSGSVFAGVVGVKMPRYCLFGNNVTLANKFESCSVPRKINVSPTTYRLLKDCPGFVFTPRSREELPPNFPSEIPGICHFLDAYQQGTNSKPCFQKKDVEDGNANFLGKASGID

`COc1cc(NC(=O)c2cc(OCCCN(C)C)nn2Cc2ccccc2)cc(OC)c1OC`: in [1], the Relative enzyme activity was found to be 0.96. Moreover, in the data set filed under Homo sapiens [2], 10 µM produced 66% inhibition.
In data set [1], `CN(C)CCCOc1cc(C(=O)Nc2ccc3c(c2)C(=O)N(C)C3=O)n(Cc2ccccc2)n1` gave a Relative enzyme activity of 0.81. Besides, in the data set listed under Homo sapiens [2], the inhibition (commonly the percentage by which the read-out fell short of the control) at 10 µM worked out at 64%.
As for `CN(C)CCCOc1cc(C(=O)Nc2cnc3ccccc3c2)n(Cc2ccccc2)n1`, the Tmax (as a rule, the time at which the peak concentration occurs) in data set [3] is 5 h. Besides, the Relative enzyme activity in data set [1] amounted to 0.91. The Cmax (commonly the peak of the concentration-time curve) in data set [4] was 14.3 ng/mL. Further, the AUC (in general, the area under the concentration-time curve, a measure of exposure) in the data set with Rattus norvegicus [5] was 95 ng·h/mL. The midpoint of inhibition in the data set listed under Homo sapiens [6], the IC50, lay at 3270 nM. Also, the inhibition at 10 µM in the data set filed under Homo sapiens [2] was found to be 95%. Besides, the bioavailability (usually dose-corrected exposure relative to a reference, in per cent) in data set [7] turned out to be 19%.
In turn, `CN(C)CCCOc1cc(C(=O)Nc2ccc(OC(F)(F)F)cc2)n(Cc2ccccc2)n1` showed a Relative enzyme activity in data set [1] of 0.93. For the same compound, the inhibition at 10 µM in the data set filed under Homo sapiens [2] was found to be 85%.
The matching figures for `CN(C)CCCOc1cc(C(=O)Nc2ccc3ccccc3n2)n(Cc2ccccc2)n1`: 0.97 and 57%.
Compound `CN(C)CCCOc1cc(C(=O)Nc2cccc(Cl)c2)n(Cc2ccccc2)n1` had a Relative enzyme activity in data set [1] of 0.93. Testing at 10 µM in the data set filed under Homo sapiens [2] gave an inhibition of 95%.
The matching figures for `CN(C)CCCOc1cc(C(=O)Nc2ccc3[nH]ccc3c2)n(Cc2ccccc2)n1`: 0.91 and 66%.
As to `CN(C)CCCOc1cc(C(=O)Nc2cc(F)cc(C(F)(F)F)c2)n(Cc2ccccc2)n1`, the Relative enzyme activity in [1] worked out at 0.9. The inhibition at 10 µM in the data set filed under Homo sapiens [2] turned out to be 43%.
In the same order, the values of `COc1cc(NC(=O)c2cc(OCCCN(C)C)nn2Cc2ccccc2)cc(OC)c1` are 0.72 and 87%.
The matching figures for `CN(C)CCCOc1cc(C(=O)Nc2nccc3ccccc23)n(Cc2ccccc2)n1`: 1.31 and 80%.
`CN(C)CCCOc1cc(C(=O)Nc2nc3ccccc3[nH]2)n(Cc2ccccc2)n1` gave a Relative enzyme activity in data set [1] of 0.74. At 10 µM the inhibition in the data set filed under Homo sapiens [2] was 13%.
Consider `CN(C)CCCOc1cc(C(=O)Nc2ccn(-c3ccccc3)n2)n(Cc2ccccc2)n1`, for which the Relative enzyme activity in [1] is 0.71. Also, the inhibition at 10 µM in the data set listed under Homo sapiens [2] was 75%.
Regarding `CN(C)CCCOc1cc(C(=O)Nc2ccccc2F)n(Cc2ccccc2)n1`, the Relative enzyme activity in data set [1] is 1.02. In the data set listed under Homo sapiens [2], this compound registered an inhibition at 10 µM of 58%.
As to `CN(C)CCCOc1cc(C(=O)Nc2cc(F)cc(F)c2)n(Cc2ccccc2)n1`, the Relative enzyme activity in data set [1] is 0.76. Moreover, testing at 10 µM in the data set listed under Homo sapiens [2] gave an inhibition of 44%.
On to `CN(C)CCCOc1cc(C(=O)Nc2nc3c(s2)CCCC3)n(Cc2ccccc2)n1`, for which the Relative enzyme activity in data set [1] is 0.85. 10 µM produced 92% inhibition in the data set listed under Homo sapiens [2].
As to `CN(C)CCCOc1nn(Cc2ccccc2)c2ccccc12` [BENZYDAMINE], the EC50 (in general, the midpoint of the concentration-response curve) in data set [8] was found to be 1020 nM.
For `COc1ccc(NC(=O)c2cc(OCCCN(C)C)nn2Cc2ccccc2)cc1Cl`, the Tmax in [3] is 4.5 h. In [1], this compound registered a Relative enzyme activity of 0.88. In [4], this compound registered a Cmax of 5.4 ng/mL. The compound also came in with an AUC in the data set with Rattus norvegicus [5] of 32.6 ng·h/mL. In addition, the concentration for half-maximal inhibition (IC50) (in general, the concentration needed to halve the response being measured) in the data set listed under Homo sapiens [6] came to 2630 nM. This compound also gave an inhibition at 10 µM in the data set listed under Homo sapiens [2] of 93%. This compound displayed a bioavailability in data set [7] of 11%.
In data set [1], `CN(C)CCCOc1cc(C(=O)Nc2ccc(Cl)cc2F)n(Cc2ccccc2)n1` displayed a Relative enzyme activity of 0.91. The compound also came in with an inhibition at 10 µM in the data set filed under Homo sapiens [2] of 96%.
In the same order, the values of `CN(C)CCCOc1cc(C(=O)Nc2ccc(-c3csnn3)cc2)n(Cc2ccccc2)n1` are 0.81 and 96%.
`COc1ccc(-c2ccccc2)cc1NC(=O)c1cc(OCCCN(C)C)nn1Cc1ccccc1`: the Tmax in data set [3] came out at 7.3 h. Besides, the Relative enzyme activity in [1] was determined as 0.86. For the same compound, the Cmax in data set [4] was determined as 18 ng/mL. Moreover, the area under the curve (AUC) in the data set on Rattus norvegicus [5] came to 130 ng·h/mL. Moreover, in the data set filed under Homo sapiens [6], the IC50 was 2760 nM. The compound also came in with an inhibition at 10 µM in the data set filed under Homo sapiens [2] of 95%. This compound came in with a bioavailability in data set [7] of 22%.
With `CN(C)CCCOc1cc(C(=O)Nc2ccc(Br)cc2)n(Cc2ccccc2)n1`, in [3], the Tmax was 5 h. In [1], this compound came in with a Relative enzyme activity of 0.87. The compound further had a Cmax in data set [4] of 12.1 ng/mL. Also, in the data set with Rattus norvegicus [5], the AUC turned out to be 76.9 ng·h/mL. Also, 3580 nM corresponded to half-maximal inhibition in the data set listed under Homo sapiens [6] (IC50). The same compound showed an inhibition at 10 µM in the data set listed under Homo sapiens [2] of 90%. The same compound returned a bioavailability in data set [7] of 17%.
In the case of `CN(C)CCCOc1cc(C(=O)Nc2cccc(-c3cnco3)c2)n(Cc2ccccc2)n1`, the Relative enzyme activity in [1] stood at 0.71. The compound further returned an inhibition at 10 µM in the data set listed under Homo sapiens [2] of 83%.
The matching figures for `CN(C)CCCOc1cc(C(=O)Nc2nccs2)n(Cc2ccccc2)n1`: 1.06 and 27%.
The matching figures for `COc1cccc(NC(=O)c2cc(OCCCN(C)C)nn2Cc2ccccc2)c1`: 0.74 and 96%.
As to `CN(C)CCCOc1cc(C(=O)Nc2cccc(F)c2)n(Cc2ccccc2)n1`, in data set [1], the Relative enzyme activity came out at 0.87. Moreover, at 10 µM the inhibition in the data set filed under Homo sapiens [2] was 95%.
The compound `COc1ccc(NC(=O)c2cc(OCCCN(C)C)nn2Cc2ccccc2)cc1` gave a bioavailability in data set [9] of 12%. In [1], this compound returned a Relative enzyme activity of 1.1. For the same compound, in [10], the Tmax is 2.7 h. The same compound returned an IC50 in the data set filed under Homo sapiens [6] of 2840 nM. For the same compound, at 10 µM the inhibition in the data set filed under Homo sapiens [2] was 83%. In the data set on Rattus norvegicus [11], the AUC amounted to 61.1 ng·h/mL. Further, the Cmax in data set [12] worked out at 6.4 ng/mL.

(Values after ChEMBL document CHEMBL1134419, “Solution-Phase parallel synthesis of 5-carboxamido 1-benzyl-3-(3-dimethylaminopropyloxy)-1H-pyrazoles as activators of soluble guanylate cyclase with improved oral bioavailability” (Bioorg Med Chem Lett, 2001).)
